From US20250262222A1, “HETEROCYCLIC COMPOUNDS, COMPOSITIONS THEREOF, AND METHODS OF TREATMENT THEREWITH” (BeiGene Switzerland GmbH, priority 2022, published 2025) come the findings set out here.

Assay [1] relates to pERK1/2(THR202/TYR204) level in AsPC-1 cell line. In words: KRAS G12D pERK assay. The assay is classed as cell-based. The settings on record: Homo sapiens, ASPC1, 2 h, AsPC-1 cells, 2 h compound treatment, HTRF. In a few lines:
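AsPC-1 (KRAS G12D) cells, 30000/well, seeded overnight, then treated 2 h with a 10-point series at 0 to 10 μM final. Lysate pERK1/2 (Thr202/Tyr204) detected by HTRF after overnight antibody incubation at room temperature; IC50 from percent inhibition versus log concentration.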

In assay [2] the test system is pERK1/2(THR202/TYR204) level in SW620 cell line. Nature of the assay: KRAS G12V pERK assay. The following applies: Homo sapiens, SW-620; SW620 cells, 2 hrs compound treatment, HTRF. It is filed as cell-based. As for the experimental part:
SW620 cell line was used in this study. Cells were maintained in RPMI 1640 supplemented with 10% fetal bovine serum (Thermo Fisher), 50 units/mL penicillin and streptomycin (Thermo Fisher) and kept at 37° C. in a humidified atmosphere of 5% CO2 in air. Cells were reinstated from frozen stocks that were laid down within 30 passages from the original cells purchased. 40000 cells per well were seeded into a 96-well plate and incubated overnight. Cells were treated with a 10-point dilution series. The final compound concentration is from 0 to 10 μM. After 2 hrs compound treatment, cells were lysed, and the pERK1/2(THR202/TYR204) level in the cell lysates was detected by HTRF kit (Cisbio). In brief, a total of 16 μL of cell lysate from each well of a 96-well plate was transferred to a 384-well white assay plate. Lysate from each well was incubated with 2 μL of Eu3+-cryptate (donor) labeled anti-phospho-ERK1/2 and 2 μL of D2 (acceptor) labeled anti-phospho-ERK1/2 antibodies (Cisbio) overnight in dark at room temperature. When donor and acceptor are in close proximity, excitation of the donor with laser triggers a Fluorescence Resonance Energy Transfer (FRET) towards the acceptor, which in turn fluoresces at 655 nm wavelength. FRET signals were measured using a PHERAstar FSX reader (BMG Labtech). IC50 determination was performed by fitting the curve of percent inhibition versus the log of the inhibitor concentration using Dotmatics.
Background: TR-FRET usually uses a lanthanide donor and a delayed reading to cut background.

The subject of assay [3] is ERK1/2 phosphorylation in SW1990 tumors. In words: SW1990 PD studies. It is filed as in vivo, Female NCG mice. The following applies: oral administration. The procedure:
Female NCG mice were subcutaneously implanted with 5×10^6 SW1990 cells per 200 μL PBS/matrigel in the right flank. After inoculation, when tumors reached a mean volume of approximately 350-450 mm^3 in size, mice were randomized into treatment groups. Randomized mice would receive a single dose of vehicle consisting of 0.5% MC or test compounds at various dose (e.g. 30, 50, or 100 mg/kg) by oral administration. Plasma was collected at 0.5, 2, 4, and 7 hours, and tumor was collected at 7 hours after dosing to determine exposure levels. Tumor fragments were snap frozen in homogenization tubes with liquid nitrogen and homogenized with T-PER Tissue Protein Extraction Buffer with protease and phosphatase inhibitors added fresh before use. Tumor lysates were then analyzed for ERK1/2 phosphorylation.

Turning to `C#Cc1c(F)ccc2cc(O)cc(-c3nc4c5c(nc(OC[C@@]67CCCN6C[C@H](F)C7)nc5c3F)N3CCOC[C@H]3CO4)c12` [Example 4, 5-ethynyl-6-fluoro-4-((S)-1-fluoro-11-(((2R,7aS)-2-fluorotetrahydro-1H-pyrrolizin-7a(5H)-yl)methoxy)-5a,6,8,9-tetrahydro-5H-4,7-dioxa-3,9a,10,12-tetraazabenzo[4,5]cyclohepta[1,2,3-de]naphthalen-2-yl)naphthalen-2-ol], the IC50 (commonly the concentration that inhibits the measured activity by half) is 76 nM in assay [1] and 6.7 nM in assay [2].

As for `C#Cc1c(F)ccc2cc(O)cc(-c3nc4c5c(nc(OCC6(CN7CCOCC7)CC6)nc5c3F)N3CCOC[C@H]3CO4)c12` [Example 8, (S)-5-ethynyl-6-fluoro-4-(1-fluoro-11-((1-(morpholinomethyl)cyclopropyl)methoxy)-5a,6,8,9-tetrahydro-5H-4,7-dioxa-3,9a,10,12-tetraazabenzo[4,5]cyclohepta[1,2,3-de]naphthalen-2-yl)naphthalen-2-ol], the midpoint of inhibition in assay [2], the IC50, lay at 43 nM.

With `N#Cc1c(N)sc2c(F)ccc(-c3c(Cl)c4c5c(nc(OC[C@@]67CCCN6C[C@H](F)C7)nc5c3F)N3C5CCC3(COC5)CO4)c12` (stereo partly drawn) [Example 15, 2-amino-4-(11-chloro-9-fluoro-7-(((2R,7aS)-2-fluorotetrahydro-1H-pyrrolizin-7a(5H)-yl)methoxy)-3,4-dihydro-1H,13H-4,13a-ethano[1,4]oxazino[3′,4′:3,4][1,4]oxazepino[5,6,7-de]quinazolin-10-yl)-7-fluorobenzo[b]thiophene-3-carbonitrile], the IC50 in assay [2] amounted to 83 nM.

Regarding `Nc1cc(Cl)c(C(F)(F)F)c(-c2nc3c4c(nc(OC[C@@]56CCCN5C[C@H](F)C6)nc4c2F)N2CCOC[C@@H]2CCO3)c1` [Example 16, 3-chloro-5-((S)-1-fluoro-12-(((2R,7aS)-2-fluorotetrahydro-1H-pyrrolizin-7a(5H)-yl)methoxy)-5,6,6a,7,9,10-hexahydro-4,8-dioxa-3,10a,11,13-tetraazabenzo[4,5]cycloocta[1,2,3-de]naphthalen-2-yl)-4-(trifluoromethyl)aniline], half-maximal inhibition in assay [2] (IC50) required 24 nM.

The molecule `N#Cc1c(N)sc2c(F)ccc(-c3c(Cl)c4c5c(nc(OC[C@@]67CCCN6C[C@H](F)C7)nc5c3F)N3CCOC[C@@H]3CCO4)c12` [Example 18] came in with an IC50 in assay [2] of 30 nM.

Consider `C#Cc1c(F)ccc2cc(O)cc(-c3nc4c5c(nc(OC[C@@]67CCCN6C[C@H](F)C7)nc5c3F)N3CCCOC[C@H]3CO4)c12` [Example 20, 5-ethynyl-6-fluoro-4-((S)-1-fluoro-12-(((2R,7aS)-2-fluorotetrahydro-1H-pyrrolizin-7a(5H)-yl)methoxy)-5a,6,9,10-tetrahydro-5H,8H-4,7-dioxa-3,10a,11,13-tetraazanaphtho[1,8-ab]heptalen-2-yl)naphthalen-2-ol], for which the IC50 in assay [2] turned out to be 1.3 nM.

Consider `Nc1cc(Cl)c(C(F)(F)F)c(-c2nc3c4c(nc(OC[C@@]56CCCN5C[C@H](F)C6)nc4c2F)N2CCOCCC2CO3)c1` (stereo partly drawn) [Example 21, 3-chloro-5-(1-fluoro-12-(((2R,7aS)-2-fluorotetrahydro-1H-pyrrolizin-7a(5H)-yl)methoxy)-5,5a,6,7,9,10-hexahydro-4,8-dioxa-3,10a,11,13-tetraazanaphtho[1,8-ab]heptalen-2-yl)-4-(trifluoromethyl)aniline], for which half-maximal inhibition in assay [2] (IC50) was put at 74 nM.

With `C#Cc1c(F)ccc2cc(O)cc(-c3nc4c5c(nc(OC[C@@]67CCCN6C[C@H](F)C7)nc5c3F)N3CCOCCC3CO4)c12` (stereo partly drawn) [Example 22, 5-ethynyl-6-fluoro-4-(1-fluoro-12-(((2R,7aS)-2-fluorotetrahydro-1H-pyrrolizin-7a(5H)-yl)methoxy)-5,5a,6,7,9,10-hexahydro-4,8-dioxa-3,10a,11,13-tetraazanaphtho[1,8-ab]heptalen-2-yl)naphthalen-2-ol], the IC50 in assay [2] was 13 nM.

Regarding `Cc1cc(N)cc(-c2nc3c4c(nc(OCC5(C(F)F)COC5)nc4c2F)N2C[C@H]4CC[C@H](N4)[C@H]2CCO3)c1C(F)(F)F` [Example 26, 3-((6aR,7S,10R)-13-((3-(difluoromethyl)oxetan-3-yl)methoxy)-1-fluoro-5,6,6a,7,8,9,10,11-octahydro-4-oxa-3,11a,12,14,15-pentaaza-7,10-methanocyclohepta[4,5]cycloocta[1,2,3-de]naphthalen-2-yl)-5-methyl-4-(trifluoromethyl)aniline], in assay [3], the oral pharmacodynamic effects entry was “enhanced oral pharmacodynamic effects”. Half-maximal inhibition in assay [1] (IC50) required 142 nM.

`Cc1cc(N)cc(-c2nc3c4c(nc(OCC56COC(C5)C6)nc4c2F)N2C[C@H]4CC[C@H](N4)[C@H]2CCO3)c1C(F)(F)F` [Example 27, 3-((6aR,7S,10R)-13-((2-oxabicyclo[2.1.1]hexan-4-yl)methoxy)-1-fluoro-5,6,6a,7,8,9,10,11-octahydro-4-oxa-3,11a,12,14,15-pentaaza-7,10-methanocyclohepta[4,5]cyclo-octa[1,2,3-de]naphthalen-2-yl)-5-methyl-4-(trifluoromethyl)aniline]: the oral pharmacodynamic effects result in assay [3] is given as “enhanced oral pharmacodynamic effects”. The same molecule came in with an IC50 in assay [1] of 203 nM.

Take `Cc1cc(N)cc(-c2nc3c4c(nc(OCC56COC(C(F)F)(C5)C6)nc4c2F)N2C[C@H]4CC[C@H](N4)[C@H]2CCO3)c1C(F)(F)F` [Example 29, 3-((6aR,7S,10R)-13-((1-(difluoromethyl)-2-oxabicyclo[2.1.1]hexan-4-yl)methoxy)-1-fluoro-5,6,6a,7,8,9,10,11-octahydro-4-oxa-3,11a,12,14,15-pentaaza-7,10-methanocyclohepta[4,5]cyclo-octa[1,2,3-de]naphthalen-2-yl)-5-methyl-4-(trifluoromethyl)aniline]: the oral pharmacodynamic effects result in assay [3] is “enhanced oral pharmacodynamic effects”. The molecule further gave an IC50 in assay [1] of 92 nM.

For `Nc1cc(Cl)c(C(F)(F)F)c(-c2nc3c4c(nc(OCC5(C(F)F)COC5)nc4c2F)N2C[C@H]4CC[C@H](N4)[C@H]2CCO3)c1` [Example 32, 3-chloro-5-((6aR,7S,10R)-13-((3-(difluoromethyl)oxetan-3-yl)methoxy)-1-fluoro-5,6,6a,7,8,9,10,11-octahydro-4-oxa-3,11a,12,14,15-pentaaza-7,10-methanocyclohepta[4,5]cyclo-octa[1,2,3-de]naphthalen-2-yl)-4-(trifluoromethyl)aniline], the oral pharmacodynamic effects result in assay [3] was “enhanced oral pharmacodynamic effects”. Further, it took 117 nM to reach half-maximal inhibition in assay [1] (IC50).

Turning to `Nc1cc(Cl)c(C(F)(F)F)c(-c2nc3c4c(nc(OCC56COC(C(F)F)(C5)C6)nc4c2F)N2C[C@H]4CC[C@H](N4)[C@H]2CCO3)c1` [Example 35, 3-chloro-5-((6aR,7S,10R)-13-((1-(difluoromethyl)-2-oxabicyclo[2.1.1]hexan-4-yl)methoxy)-1-fluoro-5,6,6a,7,8,9,10,11-octahydro-4-oxa-3,11a,12,14,15-pentaaza-7,10-methanocyclohepta[4,5]cyclo-octa[1,2,3-de]naphthalen-2-yl)-4-(trifluoromethyl)aniline], in assay [3], the oral pharmacodynamic effects entry is recorded as “enhanced oral pharmacodynamic effects”. In addition, the IC50 in assay [1] was 61 nM.
